Values quoted from earlier work in patent US12174205B2, “Phosphatidylethanolamine-specific probes” (Northwestern University, priority 2014, dated 2024).

Conditions: at micromolar concentration: membrane distortion, PE translocation

## cinnamycin
  cytotoxicity: exhibit cytotoxicity
